# Measurements: patent US8466188B2, “Use of spiro-oxindole compounds as therapeutic agents” (Xenon Pharmaceuticals Inc., priority 2006, dated 2013)
row,Compound,melting point
1,Cl.O=C1N(CCC2CCN(C3CCC3)CC2)c2ccccc2C12COc1cc3c(cc12)OCO3 (stereo not drawn),158 to 160 °C
2,Cl.O=C1N(CCC2CCN(C3CCOCC3)CC2)c2ccccc2C12COc1cc3c(cc12)OCO3 (stereo not drawn),168 to 170 °C
3,CC(C)N1CCC(CN2C(=O)C3(COc4cc5c(cc43)OCO5)c3cccc(F)c32)CC1.Cl (stereo not drawn),157 to 160 °C
4,CC1(C)COc2cc3c(cc21)C1(CO3)C(=O)N(Cc2cccnc2)c2ccccc21.Cl (stereo not drawn),124 to 126 °C
5,CC1(C)COc2cc3c(cc21)C1(CO3)C(=O)N(Cc2ccccn2)c2ccccc21.Cl (stereo not drawn),145 to 147 °C
6,CN(C)c1ccc(CN2C(=O)C3(COc4cc5c(cc43)OCO5)c3ccccc32)cn1.Cl (stereo not drawn),146 to 150 °C
7,Cl.O=C1N(Cc2ccc(N3CCOCC3)nc2)c2ccccc2C12COc1cc3c(cc12)OCO3 (stereo not drawn),185 to 200 °C
8,Cl.O=C1N(Cc2ccc(N3CCCC3)nc2)c2ccccc2C12COc1cc3c(cc12)OCO3 (stereo not drawn),160 to 165 °C
9,Cl.O=C1N(Cc2ccccn2)c2ccccc2C12COc1cc3c(cc12)CCO3 (stereo not drawn),208 to 210 °C
10,Cl.O=C1N(Cc2ccccn2)c2ccccc2C12COc1cc(OC(F)(F)F)ccc12 (stereo not drawn),150 to 152 °C
11,Cl.O=C1N(Cc2cccnc2)c2ccccc2C12COc1cc(OC(F)(F)F)ccc12 (stereo not drawn),151 to 153 °C
12,Cl.O=C1N(CCN2CCCCC2)c2ccccc2C12COc1cc3c(cc12)OCO3 (stereo not drawn),> 240 °C
13,Cl.O=C1N(CCC2CCN(C3CCCC3)CC2)c2ccccc2C12COc1cc3c(cc12)OCO3 (stereo not drawn),153 to 155 °C
14,CC(C)N1CCC(CCN2C(=O)C3(COc4cc5c(cc43)OCO5)c3ccccc32)CC1.Cl (stereo not drawn),155 to 156 °C
15,Cl.O=C1N(Cc2ccc(C(F)(F)F)o2)c2ccccc2C12COc1ccc(-c3cccnc3)cc12 (stereo not drawn),98 to 100 °C
16,"COC(=O)c1ccccc1CN1C(=O)C2(COc3cc4c(cc32)OCO4)c2ccccc21 (stereo not drawn) [Example 1.4, methyl 2-[(2′-oxospiro[furo[2,3-f][1,3]benzodioxole-7,3′-indol]-1′(2′H)-yl)methyl]benzoate]",166 to 167 °C
17,"O=C1Nc2ccccc2C12COc1cc3c(cc12)OCO3 (stereo not drawn) [Example 1.8, spiro[furo[2,3-f][1,3]benzodioxole-7,3′-indol]-2′(1′H)-one]",252 °C (dec.)
18,"CCCCCN1C(=O)C2(COc3cc(F)c(F)cc32)c2ccccc21 (stereo not drawn) [Example 1.12, 5,6-difluoro-1′-pentylspiro[1-benzofuran-3,3′-indol]-2′(1′H)-one]",48 to 50 °C
19,"CCCCCN1C(=O)C2(COc3cc(F)c(Cl)cc32)c2ccccc21 (stereo not drawn) [Example 1.15, 5-chloro-6-fluoro-1′-pentylspiro[1-benzofuran-3,3′-indol]-2′(1′H)-one]",74 to 76 °C
20,"CC1(C)COc2cc3c(cc21)C1(CO3)C(=O)N(C(c2ccccc2)c2ccccc2)c2ccccc21 (stereo not drawn) [Example 1.20, 1′-(diphenylmethyl)-5,5-dimethyl-5,6-dihydrospiro[benzo[1,2-b:5,4-b′]difuran-3,3′-indol]-2′(1′H)-one]",190 to 192 °C
21,"CC1(C)COc2cc3c(cc21)C1(CO3)C(=O)Nc2ccccc21 (stereo not drawn) [Example 1.21, 5,5-dimethyl-5,6-dihydrospiro[benzo[1,2-b:5,4-b′]difuran-3,3′-indol]-2′(1′H)-one]",95 to 100 °C
22,"CCCCCN1C(=O)C2(COc3cc4c(cc32)OCO4)c2c(Cl)ccc(Cl)c21 (stereo not drawn) [Example 1.22, 4′,7′-dichloro-1′-pentylspiro[furo[2,3-f][1,3]benzodioxole-7,3′-indol]-2′(1′H)-one]",106 to 108 °C
23,"O=C1N(Cc2ccccn2)c2cccc(Br)c2C12COc1cc3c(cc12)CCO3 (stereo not drawn) [Example 1.25, 4′-bromo-1′-(pyridin-2-ylmethyl)-5,6-dihydrospiro[benzo[1,2-b:5,4-b′]difuran-3,3′-indol]-2′(1′H)-one]",> 200 °C

row,Compound,melting point
1,"O=C1N(Cc2ccc(C(F)(F)F)o2)c2ccc(F)cc2C12COc1cc3c(cc12)OCO3 (stereo not drawn) [Example 1.26, 5′-fluoro-1′-{[5-(trifluoromethyl)-2-furyl]methyl}spiro[furo[2,3-f][1,3]benzodioxole-7,3′-indol]-2′(1′H)-one]",139 to 141 °C
2,"Cc1ccc2c(c1)C1(COc3cc4c(cc31)OCO4)C(=O)N2 (stereo not drawn) [Example 1.28, 5′-methylspiro[furo[2,3-f][1,3]benzodioxole-7,3′-indol]-2′(1′H)-one]",269 to 271 °C
3,"CCCCCN1C(=O)C2(COc3cc4nc(C)sc4cc32)c2ccccc21 (stereo not drawn) [Example 1.32, 2-methyl-1′-pentylspiro[furo[2,3-f][1,3]benzothiazole-7,3′-indol]-2′(1′H)-one]",105 to 107 °C
4,"O=C1N(Cc2ccc(C(F)(F)F)o2)c2ccccc2C12COc1ccc(Br)cc12 (stereo not drawn) [Example 1.33, 5-bromo-1′-{[5-(trifluoromethyl)-2-furyl]methyl}spiro[1-benzofuran-3,3′-indol]-2′(1′H)-one]",143 to 145 °C
5,"O=C1Nc2ccccc2C12COc1ccc(Br)cc12 (stereo not drawn) [Example 1.34, 5-bromospiro[1-benzofuran-3,3′-indol]-2′(1′H)-one]",225 to 228 °C
6,"O=C1Nc2ccccc2C12COc1cc(OC(F)(F)F)ccc12 (stereo not drawn) [Example 1.36, 6-(trifluoromethoxy)spiro[1-benzofuran-3,3′-indol]-2′(1′H)one]",180 to 182 °C
7,"CCOC(=O)CN1C(=O)C2(COc3cc(F)c(F)cc32)c2c(Br)cccc21 (stereo not drawn) [Example 1.47, ethyl (4′-bromo-5,6-difluoro-2′-oxospiro[1-benzofuran-3,3′-indol]-1′(2′H)-yl)acetate]",133 to 134 °C
8,"O=C1Nc2ccccc2C12COc1cc3c(cc12)CCO3 (stereo not drawn) [Example 1.51, 5,6-dihydrospiro[benzo[1,2-b:5,4-b′]difuran-3,3′-indol]-2′(1′H)-one]",208 to 210 °C
9,"COc1cccc2c1C1(COc3cc4c(cc31)OCO4)C(=O)N2Cc1ccc(C(F)(F)F)o1 (stereo not drawn) [Example 1.53, 4′-methoxy-1′{[5-(trifluoromethyl)-2-furyl]methyl}spiro[furo[2,3-f][1,3]benzodioxole-7,3′-indol]-2′(1′H)-one]",149 to 153 °C
10,"O=C(O)CN1C(=O)C2(COc3cc4c(cc32)CCO4)c2c(Cl)cccc21 (stereo not drawn) [Example 2.2, (4′-chloro-2′-oxo-5,6-dihydrospiro[benzo[1,2-b:5,4-b′]difuran-3,3′-indol]-1′(2′H)-yl)acetic acid]",228 to 229 °C
11,"O=C(CN1C(=O)C2(COc3cc4c(cc32)CCO4)c2c(Cl)cccc21)Nc1ccccc1F (stereo not drawn) [Example 3.6, 2-(4′-chloro-2′-oxo-5,6-dihydrospiro[benzo[1,2-b:5,4-b′]difuran-3,3′-indol]-1′(2′H)-yl)-N-(2-fluorophenyl)acetamide]",243 to 245 °C
12,"O=C(CN1C(=O)C2(COc3cc4c(cc32)CCO4)c2cc(Cl)ccc21)Nc1ccccc1F (stereo not drawn) [Example 3.7, 2-(5′-chloro-2′-oxo-5,6-dihydrospiro[benzo[1,2-b:5,4-b′]difuran-3,3′-indol]-1′(2′H)-yl)-N-(2-fluorophenyl)acetamide]",229 to 230 °C
13,"O=C(CN1C(=O)C2(COc3cc(Cl)ccc32)c2ccccc21)Nc1ccccc1F (stereo not drawn) [Example 3.8, 2-(6-chloro-2′-oxospiro[1-benzofuran-3,3′-indol]-1′(2′H)-yl)-N-(2-fluorophenyl)acetamide]",70 to 75 °C
14,"O=C(CN1C(=O)C2(COc3cc(F)c(F)cc32)c2ccccc21)Nc1ccccc1F (stereo not drawn) [Example 3.9, 2-(5,6-difluoro-2′-oxospiro[1-benzofuran-3,3′-indol]-1′(2′H)-yl)-N-(2-fluorophenyl)acetamide]",97 to 100 °C
15,"O=C(CN1C(=O)C2(COc3ccc(Br)cc32)c2ccccc21)Nc1ccccc1F (stereo not drawn) [Example 3.10, 2-(5-bromo-2′-oxospiro[1-benzofuran-3,3′-indol]-1′(2′H)-yl)-N-(2-fluorophenyl)acetamide]",100 to 103 °C
16,"O=C(CN1C(=O)C2(COc3cc4c(cc32)CCO4)c2c(Br)cccc21)Nc1ccccc1F (stereo not drawn) [Example 3.12, 2-(4′-bromo-2′-oxo-5,6-dihydrospiro[benzo[1,2-b:5,4-b′]difuran-3,3′-indol]-1′(2′H)-yl)-N-(2-fluorophenyl)acetamide]",245 to 246 °C
17,"O=C(CN1C(=O)C2(COc3cc4c(cc32)CCO4)c2ccccc21)Nc1ccccc1F (stereo not drawn) [Example 3.13, N-(2-fluorophenyl)-2-(2′-oxo-5,6-dihydrospiro[benzo[1,2-b:5,4-b′]difuran-3,3′-indol]-1′(2′H)-yl)acetamide]",210 to 212 °C
18,"Cc1ccc(F)c2c1N(CC(=O)Nc1ccccc1F)C(=O)C21COc2cc3c(cc21)CCO3 (stereo not drawn) [Example 3.14, 2-(4′-fluoro-7′-methyl-2′-oxo-5,6-dihydrospiro[benzo[1,2-b:5,4-b′]difuran-3,3′-indol]-1′(2′H)-yl)-N-(2-fluorophenyl)acetamide]",250 to 255 °C
19,"CC1(C)Cc2cc3c(cc2O1)OCC31C(=O)N(CC(=O)Nc2ccccc2F)c2cccc(-c3cncnc3)c21 (stereo not drawn) [Example 4.3, 2-(6,6-dimethyl-2′-oxo-4′-pyrimidin-5-yl-5,6-dihydrospiro[benzo[1,2-b:5,4-b′]difuran-3,3′-indol]-1′(2′H)-yl)-N-(2-fluorophenyl)acetamide]",> 250 °C
20,"O=C1Nc2cccc(-c3ccoc3)c2C12COc1cc3c(cc12)OCO3 (stereo not drawn) [Example 4.4, 4′-(3-furyl)spiro[furo[2,3-f][1,3]benzodioxole-7,3′-indol]-2′(1′H)-one]",270 to 272 °C
21,"O=C1Nc2cccc(-c3cccc4c3oc3ccccc34)c2C12COc1cc3c(cc12)OCO3 (stereo not drawn) [Example 4.5, 4′-dibenzo[b,d]furan-4-ylspiro[furo[2,3-f][1,3]benzodioxole-7,3′-indol]-2′(1′H)-one]",> 230 °C
22,"COc1ccc(-c2cccc3c2C2(COc4cc5c(cc42)OCO5)C(=O)N3Cc2ccc(C(F)(F)F)o2)cn1 (stereo not drawn) [Example 4.6, 4′-(6-methoxypyridin-3-yl)-1′-{[5-(trifluoromethyl)-2-furyl]methyl}spiro[furo[2,3-f][1,3]benzodioxole-7,3′-indol]-2′(1′H)-one]",174 to 176 °C
